Data on 35 molecules can be found in patent publication US10584115B2, “Substituted pyridine and pyrazine BMI-1 inhibitors” (PTC Therapeutics, Inc., priority 2013, dated 2020).

Structures can show the parent of a compound that is named as a salt.

What is called EC50 is the concentration needed to bring the measured effect to its halfway point.

One assay relates to Bmi-1 protein. Description: Sandwich ELISA Assay (Bmi-1 protein level in HT-1080 cells after compound treatment). It counts as cell-based. Conditions: Table 1, Bmi-1 sandwich ELISA, read-out: ELISA EC50 value for Bmi-1 protein. The method in brief:
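Sandwich ELISA quantified Bmi-1 protein against recombinant standard (125–8000 pg/mL), with lysates captured overnight at 4 °C and signal by HRP/TMB at 450 nm (570 nm reference). Lysates came from HT-1080 cells incubated 40–48 h with test compounds in 0.5% DMSO.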
A general note: ELISA stands for enzyme-linked immunosorbent assay.
Regarding `Cc1nc2ccc(F)cc2n1-c1cncc(Nc2ccc(Cl)nc2)n1` [compound 427, N-(6-chloropyridin-3-yl)-6-(6-fluoro-2-methyl-1H-benzimidazol-1-yl)pyrazin-2-amine], the half-maximal effective concentration (EC50) was in the range of 0.01 to 0.1 µM. Consider `COc1ccc(Nc2cc(N)cc(-n3c(C)nc4ccccc43)n2)cc1` [compound 580, N^2-(4-methoxyphenyl)-6-(2-methyl-1H-benzimidazol-1-yl)pyridine-2,4-diamine], for which the EC50 is 0.01 to 0.1 µM. On the same count and under the same terms, as for `Cc1nc2ccc(N)cc2n1-c1cncc(Nc2ccc(C(F)(F)F)cc2)n1` [compound 285, 2-methyl-1-(6-{[4-(trifluoromethyl)phenyl]amino}pyrazin-2-yl)-1H-benzimidazol-6-amine], the figure is 0.01 to 0.1 µM; as for `Fc1ccc2nc(C(F)(F)F)c(-c3cccc(Nc4ccc(C(F)(F)F)cc4)n3)n2c1` [compound 411, 6-[6-fluoro-2-(trifluoromethyl)imidazo[1,2-a]pyridin-3-yl]-N-[4-(trifluoromethyl)phenyl]pyridin-2-amine], 0.01 to 0.1 µM.

With `Fc1ccc2nc(C(F)(F)F)c(-c3cncc(Nc4ccc(Cl)cc4)n3)n2c1` [compound 670, N-(4-chlorophenyl)-6-[6-fluoro-2-(trifluoromethyl)imidazo[1,2-a]pyridin-3-yl]pyrazin-2-amine], the EC50 was in the range of 0.1 to 3 µM. As for `[O-][n+]1cc(Nc2ccc(C(F)(F)F)cc2)nc(-c2c(C(F)(F)F)nc3ccc(F)cn23)c1` [compound 538, 6-[6-fluoro-2-(trifluoromethyl)imidazo[1,2-a]pyridin-3-yl]-N-[4-(trifluoromethyl)phenyl]pyrazin-2-amine 4-oxide], the EC50 was 0.001 to 0.01 µM. On the same count and under the same terms, next, `Cc1ccc(Nc2cncc(-n3c(C)nc4ccccc43)n2)c(O)c1` [compound 582, 5-methyl-2-{[6-(2-methyl-1H-benzimidazol-1-yl)pyrazin-2-yl]amino}phenol]: 0.001 to 0.01 µM; `COCCNc1cc(Nc2ccc(C(F)(F)F)cc2)nc(-c2c(C(F)(F)F)nc3ccccn23)c1` [compound 161, N^4-(2-methoxyethyl)-6-[2-(trifluoromethyl)imidazo[1,2-a]pyridin-3-yl]-N^2-[4-(trifluoromethyl)phenyl]pyridine-2,4-diamine]: 0.01 to 0.1 µM; `COc1ccc2nc(C)c(-c3cc(C#N)cc(Nc4ccc(OC(F)F)cc4)n3)n2c1` [compound 677, 2-{[4-(difluoromethoxy)phenyl]amino}-6-(6-methoxy-2-methylimidazo[1,2-a]pyridin-3-yl)pyridine-4-carbonitrile]: 0.1 to 3 µM. Still for that read-out and setting: as for `Fc1cc2nc(C3CC3)n(-c3cncc(Nc4ccc(OC(F)F)cc4)n3)c2cc1F` [compound 460, 6-(2-cyclopropyl-5,6-difluoro-1H-benzimidazol-1-yl)-N-[4-(difluoromethoxy)phenyl]pyrazin-2-amine], the figure is 0.01 to 0.1 µM. The same measure, in the same setting: next, `Cc1ccc(Nc2cncc(-c3c(C(F)(F)F)nc4cnccn34)n2)cc1` [compound 168, N-(4-methylphenyl)-6-[2-(trifluoromethyl)imidazo[1,2-a]pyrazin-3-yl]pyrazin-2-amine]: 0.01 to 0.1 µM; `Cc1nc2cc(F)c(F)cc2n1-c1cc(C#N)cc(Nc2ccc(OC(F)F)cc2)n1` [compound 242, 2-{[4-(difluoromethoxy)phenyl]amino}-6-(5,6-difluoro-2-methyl-1H-benzimidazol-1-yl)pyridine-4-carbonitrile]: 0.01 to 0.1 µM; `FC(F)(F)c1nc2ccccn2c1-c1cncc(Nc2cnc(Cl)nc2)n1` [compound 200, 2-chloro-N-{6-[2-(trifluoromethyl)imidazo[1,2-a]pyridin-3-yl]pyrazin-2-yl}pyrimidin-5-amine]: 0.1 to 3 µM.

Regarding `Cc1nc2ncccc2n1-c1cc(NC(=O)OC(C)(C)C)cc(Nc2ccc(C(F)(F)F)cc2)n1` [compound 290, tert-butyl[2-(2-methyl-1H-imidazo[4,5-b]pyridin-1-yl)-6-{[4-(trifluoromethyl)phenyl]amino}pyridin-4-yl]carbamate], the EC50 is 0.1 to 3 µM. For `Cc1nc(C)n(-c2cncc(Nc3ccc(C(F)(F)F)cc3)n2)c1C` [compound 342, N-[4-(trifluoromethyl)phenyl]-6-(2,4,5-trimethyl-1H-imidazol-1-yl)pyrazin-2-amine], the EC50 lay within 0.01 to 0.1 µM.

Take `Cc1nc2c(F)cc(F)cn2c1-c1cncc(Nc2ccc(OC(F)F)cc2)n1` [compound 255, N-[4-(difluoromethoxy)phenyl]-6-(6,8-difluoro-2-methylimidazo[1,2-a]pyridin-3-yl)pyrazin-2-amine]: the EC50 was in the range of 0.001 to 0.01 µM. `CNc1ccc2nc(C)n(-c3cncc(Nc4ccc(C(F)(F)F)cc4)n3)c2c1` [compound 274, N,2-dimethyl-1-(6-{[4-(trifluoromethyl)phenyl]amino}pyrazin-2-yl)-1H-benzimidazol-6-amine]: the EC50 is 0.01 to 0.1 µM. Same read-out and setting: as for `O=C(c1ccc(Nc2cncc(-c3c(C(F)(F)F)nc4ccccn34)n2)cc1)C(F)(F)F` [compound 212, 2,2,2-trifluoro-1-[4-({6-[2-(trifluoromethyl)imidazo[1,2-a]pyridin-3-yl]pyrazin-2-yl}amino)phenyl]ethanone], the figure is 0.1 to 3 µM; as for `COc1ccc2nc(C(F)(F)F)c(-c3cncc(Nc4ccc(Cl)cc4)n3)n2c1` [Cpd 679, N-(4-chlorophenyl)-6-[6-methoxy-2-(trifluoromethyl)imidazo[1,2-a]pyridin-3-yl]pyrazin-2-amine], 0.01 to 0.1 µM. On to `CCc1nn2ccccc2c1-c1cc(C#N)cc(Nc2ccc(OC(F)F)c(F)c2)n1` [compound 528, 2-{[4-(difluoromethoxy)-3-fluorophenyl]amino}-6-(2-ethylpyrazolo[1,5-a]pyridin-3-yl)pyridine-4-carbonitrile], for which the EC50 is 0.01 to 0.1 µM. With `Cc1ccc(Nc2cc(-n3c(C)ccc3C)cc(-n3c(C)nc4ccccc43)n2)cc1` [compound 617, 4-(2,5-dimethyl-1H-pyrrol-1-yl)-6-(2-methyl-1H-benzimidazol-1-yl)-N-(4-methylphenyl)pyridin-2-amine], the EC50 is 0.01 to 0.1 µM. Still for that read-out and setting: as for `COc1cc(Nc2ccc(C(F)(F)F)cc2)nc(-c2c(C(=O)O)nc3ccccn23)c1` [Cpd 124, 3-(4-methoxy-6-{[4-(trifluoromethyl)phenyl]amino}pyridin-2-yl)imidazo[1,2-a]pyridine-2-carboxylic acid], the figure is 0.01 to 0.1 µM.

For `FC(F)Oc1ccc(Nc2cncc(-c3c(C4CC4)nc4ccc(C(F)(F)F)cn34)n2)cc1` [compound 251, 6-[2-cyclopropyl-6-(trifluoromethyl)imidazo[1,2-a]pyridin-3-yl]-N-[4-(difluoromethoxy)phenyl]pyrazin-2-amine], the EC50 lay within 0.01 to 0.1 µM. Still for that read-out and setting: as for `N#Cc1cc(Nc2ccc(OC(F)F)c(F)c2)nc(-n2c(C3CC3)nc3c(F)cc(F)cc32)c1` [compound 476, 2-(2-cyclopropyl-4,6-difluoro-1H-benzimidazol-1-yl)-6-{[4-(difluoromethoxy)-3-fluorophenyl]amino}pyridine-4-carbonitrile], the figure is 0.01 to 0.1 µM; as for `Cc1nc2ccccc2n1-c1cncc(Nc2ccc(CN)cc2)n1` [154a, N-[4-(aminomethyl)phenyl]-6-(2-methyl-1H-benzimidazol-1-yl)pyrazin-2-amine trifluoroacetate], 0.01 to 0.1 µM. Same read-out and setting: next, `CCc1nc2c(n1-c1cncc(Nc3ccc(C(F)(F)F)cc3)n1)CN(C)CC2` [compound 398, 6-(2-ethyl-5-methyl-4,5,6,7-tetrahydro-3H-imidazo[4,5-c]pyridin-3-yl)-N-[4-(trifluoromethyl)phenyl]pyrazin-2-amine]: 0.1 to 3 µM.

Take `FC(F)(F)Oc1ccc(Nc2cncc(-c3c(C(F)(F)F)nc4ncccn34)n2)cc1` [Cpd 100, N-[4-(trifluoromethoxy)phenyl]-6-[2-(trifluoromethyl)imidazo[1,2-a]pyrimidin-3-yl]pyrazin-2-amine]: the concentration for a half-maximal effect (EC50) lay within 0.1 to 3 µM. Still for that read-out and setting: next, `FC(F)(F)c1nc2ccccn2c1-c1cncc(Nc2ccc(Br)c(Cl)c2)n1` [Cpd 31, N-(4-bromo-3-chlorophenyl)-6-[2-(trifluoromethyl)imidazo[1,2-a]pyridin-3-yl]pyrazin-2-amine]: 0.01 to 0.1 µM; `OCCNc1cc(Nc2ccc(C(F)(F)F)cc2)nc(-c2c(C(F)(F)F)nc3ccc(F)cn23)c1` [compound 291, 2-[(2-[6-fluoro-2-(trifluoromethyl)imidazo[1,2-a]pyridin-3-yl]-6-{[4-(trifluoromethyl)phenyl]amino}pyridin-4-yl)amino]ethanol]: 0.01 to 0.1 µM; `CCc1nc2cnccc2n1-c1cncc(Nc2ccc(C(F)(F)F)cc2)n1` [compound 370, 6-(2-ethyl-1H-imidazo[4,5-c]pyridin-1-yl)-N-[4-(trifluoromethyl)phenyl]pyrazin-2-amine]: 0.1 to 3 µM. On the same count and under the same terms, as for `Cc1nc2ccccc2n1-c1cc(N)cc(Nc2ccc(OC(F)(F)F)cc2)n1` [compound 604], the figure is 0.1 to 3 µM; as for `Cc1nc2cc(F)c(F)cc2n1-c1cncc(Nc2ccc(C(F)(F)F)c(F)c2)n1` [compound 295, 6-(5,6-difluoro-2-methyl-1H-benzimidazol-1-yl)-N-[3-fluoro-4-(trifluoromethyl)phenyl]pyrazin-2-amine], 0.01 to 0.1 µM.

The same assay, now with this note: read-out: ELISA EC50 value for Bmi-1 protein, Table 1, Bmi-1 sandwich ELISA.
`FC(F)(F)c1ccc(Nc2cccc(-c3c(C(F)(F)F)nc4ncccn34)n2)cc1` [Cpd 64, 6-[2-(trifluoromethyl)imidazo[1,2-a]pyrimidin-3-yl]-N-[4-(trifluoromethyl)phenyl]pyridin-2-amine]: the EC50 lay in the range of 0.01 to 0.1 µM. Turning to `Cc1nc2ccccc2n1-c1cc(C#N)cc(Nc2ccc(C(F)(F)F)cc2)n1` [Cpd 132, 2-(2-methyl-1H-benzimidazol-1-yl)-6-{[4-(trifluoromethyl)phenyl]amino}pyridine-4-carbonitrile], the EC50 is 0.01 to 0.1 µM. In the case of `Cc1nc2ccccc2n1-c1cc(N)cc(Nc2ccc(C(F)(F)F)cc2)n1` [Cpd 492, 6-(2-methyl-1H-benzimidazol-1-yl)-N^2-[4-(trifluoromethyl)phenyl]pyridine-2,4-diamine], the 50% effective concentration (EC50) was 0.01 to 0.1 µM.
